row,melting point [°C],Structure (SMILES)
1,215 to 217,"Cc1cc(-c2ccc(Cl)cc2)cn2c(C#Cc3cncc(S(=O)(=O)NC(C)(C)CO)c3)cnc12 [Example 230, 5-[6-(4-Chloro-phenyl)-8-methyl-imidazo[1,2-a]pyridin-3-ylethynyl]-pyridine-3-sulfonic acid (2-hydroxy-1,1-dimethyl-ethyl)-amide]"
2,303 to 305,"Nc1ncc(C#Cc2cnn3c(C(F)(F)F)cc(-c4ccc(Cl)cc4)nc23)cn1 [Example 317, 5-[5-(4-Chloro-phenyl)-7-trifluoromethyl-pyrazolo[1,5-a]pyrimidin-3-ylethynyl]-pyrimidin-2-ylamine]"
3,224 to 226,"NS(=O)(=O)c1ccc(C#Cc2cnn3ccc(-c4ccc(C(F)(F)F)cc4)nc23)s1 [Example 311, 5-[5-(4-Trifluoromethyl-phenyl)-pyrazolo[1,5-a]pyrimidin-3-ylethynyl]-thiophene-2-sulfonic acid amide]"
4,233 to 235,"COc1ncc(S(=O)(=O)NC(C)(CO)CO)cc1C#Cc1cnn2c(C(F)(F)F)cc(-c3ccc(C(F)(F)F)cc3)nc12 [Example 25, 6-Methoxy-5-[7-trifluoromethyl-5-(4-trifluoromethyl-phenyl)-pyrazolo[1,5-a]pyrimidin-3-ylethynyl]-pyridine-3-sulfonic acid (2-hydroxy-1-hydroxymethyl-1-methyl-ethyl)-amide]"
5,204 to 206,"CC(CO)(CO)NS(=O)(=O)c1cncc(C#Cc2cnn3c(C4CC4)cc(-c4ccc(Cl)cc4)nc23)c1 [Example 68, 5-[5-(4-Chloro-phenyl)-7-cyclopropyl-pyrazolo[1,5-a]pyrimidin-3-ylethynyl]-pyridine-3-sulfonic acid (2-hydroxy-1-hydroxymethyl-1-methyl-ethyl)-amide]"
6,157 to 158,"CC(O)c1ccc(C#Cc2cnc3c(C(F)(F)F)cc(-c4ccc(C(F)(F)F)cc4)cn23)cc1 (stereo not drawn) [Example 195, 1-{4-[8-Trifluoromethyl-6-(4-trifluoromethyl-phenyl)-imidazo[1,2-a]pyridin-3-ylethynyl]-phenyl}-ethanol]"
7,216,"Cc1cc(-c2cc(C(F)F)n3ncc(C#Cc4ccc(S(N)(=O)=O)s4)c3n2)ccc1Cl [Example 172, 5-[5-(4-Chloro-3-methyl-phenyl)-7-difluoromethyl-pyrazolo[1,5-a]pyrimidin-3-ylethynyl]-thiophene-2-sulfonic acid amide]"
8,191,"Cc1cc(-c2cc(C(F)F)n3ncc(C#Cc4ccc(S(=O)(=O)N5CCN(C)CC5)s4)c3n2)ccc1Cl [Example 255, 5-(4-Chloro-3-methyl-phenyl)-7-difluoromethyl-3-[5-(4-methyl-piperazine-1-sulfonyl)-thiophen-2-ylethynyl]-pyrazolo[1,5-a]pyrimidine]"
9,185 to 186,"CC(C)(CO)NS(=O)(=O)c1cncc(C#Cc2cnn3ccc(-c4ccc(Cl)cc4)nc23)c1 [Example 74, 5-[5-(4-Chloro-phenyl)-pyrazolo[1,5-a]pyrimidin-3-ylethynyl]-pyridine-3-sulfonic acid (2-hydroxy-1,1-dimethyl-ethyl)-amide]"
10,122,"O=S(=O)(c1ccc(C#Cc2cnn3c(C(F)F)cc(-c4ccc(C(F)(F)F)cc4)nc23)s1)N(CCO)CCO [Example 269, 5-[7-Difluoromethyl-5-(4-trifluoromethyl-phenyl)-pyrazolo[1,5-a]pyrimidin-3-ylethynyl]-thiophene-2-sulfonic acid bis-(2-hydroxy-ethyl)-amide]"
11,213 to 214,"CNS(=O)(=O)c1cccc(C#Cc2cnn3c(C(F)(F)F)cc(-c4ccc(C(F)(F)F)cc4)nc23)c1 [Example 130, N-Methyl-3-[7-trifluoromethyl-5-(4-trifluoromethyl-phenyl)-pyrazolo[1,5-a]pyrimidin-3-ylethynyl]-benzenesulfonamide]"
12,267,"Nc1ccc(C#Cc2cnc3c(C(F)(F)F)cc(-c4ccc(C(F)(F)F)cc4)nn23)cn1 [Example 232, 5-[8-Trifluoromethyl-6-(4-trifluoromethyl-phenyl)-imidazo[1,2-b]pyridazin-3-ylethynyl]-pyridin-2-ylamine]"

# Source: patent US8063048B2, “Acetylenyl-pyrazolo-pyrimidine derivatives” (Hoffmann-La Roche Inc., priority 2005, dated 2011)
